Laboratory results reported in patent US20260216176A1, “USE OF PCLX-001 OR PCLX-002 AS A RADIOSENSITIZER” (ACYLEX PHARMACEUTICALS INC., priority 2023, published 2026).

Test system: U251 glioblastoma cell line
Assay: Alamar Blue cell viability assay of radiosensitization (PCLX-001 pre-treatment plus radiation)
Type: cell-based, human
Protocol: Cancer cell lines of human origin were cultivated in the suitable culture medium enriched with 10% fetal bovine serum (FBS) and a 1% mixture of penicillin-streptomycin. These were incubated at a temperature of 37° C. in a 5% CO2 humid environment. The cells were sub-cultured upon reaching a confluence of 80% with the aid of 0.25% trypsin-EDTA [Freshney, R. I., 2010. Culture of animal cells: a manual of basic technique and specialized applications. John Wiley & Sons].
PCLX-001 was prepared at several concentrations for use as a radiosensitizing drug (serial dilutions from 1000 nM, including control 0 nM) in culture media. The cancer cells cultures were then treated with the aforementioned PCLX-001 concentrations and left for 24 h, 48 h, 72 h, and 96 h to allow for maximum pharmacodynamic effect. The cells were then plated into 96-well plates at 5000 cells per well and left to attach overnight while continuing to incubate in the drug/media cocktail.
Upon completion of the PCLX-001 incubation period, a single radiation dose was administered to the cells using a preclinical irradiator. The quantity of radiation was decided based on the results from prior optimization tests [Hall, E. J., Giaccia, A. J., 2012. Radiobiology for the radiologist. Lippincott Williams & Wilkins.]. The radiation doses included 0, 2, and 4 Gy, which corresponds to the most common clinical radiation dose fractions used.
72 hours post-radiation, an Alamar Blue Assay was conducted to determine cell viability. Alamar Blue dye was added to the media (10% v/v) and the plates were incubated at 37° C. for 4 hours. Using a fluorescence plate reader, fluorescence was measured at excitation/emission wavelengths of 560/590 nm. To quantify cell viability, the results were normalized to the data from untreated controls [Ahmed, S. A., et al., 1994].
The data were shown as mean±standard deviation (SD) gathered from three or more independent tests. A one-way ANOVA followed by a post hoc Tukey test was used for statistical analyses to find significant disparities between treatment groups. […]

Cc1c(N[S+](=O)(O)c2c(Cl)cc(-c3ccnc(N4CCNCC4)c3)cc2Cl)c(CC(C)C)nn1C [PCLX-001]
dose-enhancement factor (U251, below 25 nM): below 1.2
toxicity of the drug itself versus radiotherapy effect (above 150 nM): toxicity of the drug itself exceeds the effect of typical radiotherapy dose-per-fraction's effect
increase of radiotherapy's effectiveness (cancer cell line tested (human glioblastoma)): about 80%
